Non-standard residues stand in square brackets, D forms with d. Residues, ends and D or L forms follow the SMILES beside them. Aib = CC(C)(N)C(=O)O
How the values were obtained:
[1] = system: CA1 region of the hippocampus (Aβ1-42 inhibition of LTP); assay: Long-term potentiation (LTP) of fEPSPs in hippocampal slices after Aβ1-42 aggregated with or without D-Trp-Aib; assay type: cell-based, mice; details: Aβ1-42 50 nM aggregated under serial dilution conditions without D-Trp-Aib
Experimental: Aβ1-42 (order number 62-0-80, batch Y11042T1, American Peptide Company, Sunnyvale, Calif. 94086, U.S.A.) is suspended in 100% HFIP (Sigma Aldrich) to approximately 1 mg/ml (2 mg dissolved in 2 ml HFIP) and shaken at 37° C. for 1.5 hours in tightly sealed Eppendorf vials. This is allowed to cool to room temperature and then the solution is portioned into aliquots and the HFIP removed by evaporation using a Speedvac for approximately 30 minutes. When dry, the Aβ1-42 is stored at −20° C. The Aβ1-42 is dissolved in anhydrous DMSO (Sigma Aldrich) to a concentration of 100 fold that required in PBS (i.e. 10 mM for 100 μM) with the aid of an ultrasonic water bath with/without D-Trp-Aib (SEQ ID NO. 30) (i.e. for a 10:1 ratio with D-Trp-Aib (SEQ ID NO. 30) 100 mM for 10 mM Aβ1-42). This solution is then immediately diluted in PBS to a final concentration of 100 μM Aβ in 1% DMSO. These solutions are allowed to aggregate at room temperature for various times (e.g. 1 hour, 1 day, 1 week) before being used. […]
Extracellular recordings of field excitatory postsynaptic potentials (fEPSPs) are obtained from the dendritic region of the CA1 region of the hippocampus using glass micropipettes (1-2 MW) filled with superfusion solution. […] Amplified fEPSPs and NMDA-EPSCs are filtered (3 kHz), digitized (15 kHz) and measured and plotted online, using the “LTP-program”-software. […]

[2] = Half-life and concentrations of substance in the rat / vitreal space of the eye; assay type: in vivo
Experimental: In a further experiment, rats are treated systemically (s.c.) and the experiment is repeated as above. The aim of this study is to verify whether systemic administration produces sufficiently high concentrations in the eye. Therefore, additionally, concentrations of substances of the instant invention are analyzed in the vitreal space of the eye. In animals treated systemically with experimental substances, there is a decrease in RGC apoptosis at least at one time point assessed and significant concentrations of the experimental substances are detected in the vitreal space of the eye.
The experiment is repeated as described above, except that substance is applied (s.c.) once 24 hrs before induction of glaucoma.
In another animal study with glaucomatous rats (procedure as described above, Morrison model) D-Trp-Aib (SEQ ID NO. 30) is applied 3 days prior to the induction of glaucoma (one single s.c injection). […] The explanation of this unexpected finding is that the pretreatment with D-Trp-Aib (SEQ ID NO. 30) leads to formation of non-toxic bulky Aβ aggregates (possibly micro non-toxic bulky Aβ aggregates) consisting of D-Trp-Aib (SEQ ID NO. 30) and physiologically Aβ that is ubiquitously prevailing at low concentrations. These non-toxic bulky Aβ aggregates function in isolating toxic Aβ after glaucoma induction even if the Aβ is released at higher concentrations.

Molecule | inhibition of LTP [1] | detectability in the animal at the time point of glaucoma induction ([2]; 3 days after one single s.c injection) | half-life ([2]; in vivo, in the rat) [h]
Aβ1-42: lyophilized β-amyloid Aβ1-42 peptide (Bachem / American Peptide Company) used as toxic stimulus | strong inhibition of LTP | – | –
CC(C)(NC(=O)[C@H](N)Cc1c[nH]c2ccccc12)C(=O)O [D-Trp-Aib] (H-[dW]-[Aib]-OH; N-terminus and C-terminus assumed) | – | no longer detectable | 1 to 2

Reference: patent publication US9717772B2, “Interval therapy for the treatment of loss of eyesight in humans with glaucoma and other degenerative eye diseases” (Ramot at Tel-Aviv University Ltd., priority 2012, dated 2017)
